The values that follow come from publication PMC3240935, “Development and characterization of a novel C-terminal inhibitor of Hsp90 in androgen dependent and independent prostate cancer cells” (2011).

This test deals with T1, Hsp90β (Homo sapiens, UniProt P08238).
T1 construct: gene HSP90AB1; recombinant Hsp90β purified from baculovirus infected Sf9 cells
In words: SPR, immobilized Hsp90β, binding curve fit (kinetic Kd […]).

T1 sequence (P08238 2-724): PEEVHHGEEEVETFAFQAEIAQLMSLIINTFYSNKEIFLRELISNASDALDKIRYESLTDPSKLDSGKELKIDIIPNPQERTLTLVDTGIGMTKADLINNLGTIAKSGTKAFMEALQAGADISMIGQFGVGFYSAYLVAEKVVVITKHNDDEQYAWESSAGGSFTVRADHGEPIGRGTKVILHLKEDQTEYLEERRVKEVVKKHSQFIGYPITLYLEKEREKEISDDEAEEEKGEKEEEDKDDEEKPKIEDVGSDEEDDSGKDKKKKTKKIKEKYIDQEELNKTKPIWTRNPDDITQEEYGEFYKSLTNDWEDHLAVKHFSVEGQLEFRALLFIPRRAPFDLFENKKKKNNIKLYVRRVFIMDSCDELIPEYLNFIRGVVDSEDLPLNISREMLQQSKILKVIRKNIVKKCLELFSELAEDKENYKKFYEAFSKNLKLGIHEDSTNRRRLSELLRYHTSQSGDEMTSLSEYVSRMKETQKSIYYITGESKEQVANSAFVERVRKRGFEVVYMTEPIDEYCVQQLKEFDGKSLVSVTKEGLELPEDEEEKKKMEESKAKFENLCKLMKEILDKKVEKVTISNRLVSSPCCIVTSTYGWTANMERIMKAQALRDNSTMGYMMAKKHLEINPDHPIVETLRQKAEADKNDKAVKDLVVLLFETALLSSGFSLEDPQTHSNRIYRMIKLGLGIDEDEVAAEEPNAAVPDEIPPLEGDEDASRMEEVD

KU174 displayed a Kd of 78 µM.
